The results in this text go back to patent US20230210845A1, “DOSING METHODS FOR TREATMENT OF CARDIOVASCULAR CONDITIONS” (IMBRIA PHARMACEUTICALS, INC., priority 2020, published 2023).

The nature of data set [1]: FIH study overall safety (deaths, clinical laboratory, vital signs, ECG, telemetry, physical examination).
Procedure: AEs were recorded from (first) admission until completion of the follow-up visit. Any clinically significant observations in results of clinical laboratory, 12-lead ECGs, vital signs, or physical examinations were recorded as AEs. […]
Systolic and diastolic blood pressure and pulse were recorded after the subject had been resting for at least 5 minutes in the supine position. […] Body temperature and respiratory rate were measured subsequently.
The ECG was recorded using an ECG machine equipped with computer-based interval measurements (with no/minimal disturbance by procedures). The following ECG parameters were recorded: heart rate, PR-interval, QRS-duration, QT-interval, QTcF-interval, and the interpretation of the ECG profile by the Investigator.
Physical examination was performed according to PRA SOPs. In addition, body weight and height were measured according to PRA SOPs.
Data set [2] is described as follows: 28-day dog toxicology study (NOAEL and exposure). The data set is classed as in vivo. The following applies: for AUC0-8×2: Day 26, IMB-1018972 200 mg/kg/day. How it is done:
Based on the nonclinical toxicology data, it was considered that subjects in this clinical study were not at unreasonable risk of adverse effects. […] For a 60-kg individual, the NOAEL dose would be 6480 mg. With a 10-fold safety factor applied, this would allow for a maximum recommended starting dose (MRSD) of 648 mg/day.7,8 The planned starting dose in the current Phase 1 study was 50 mg, equivalent to 0.83 mg/kg/day for a 60-kg subject. This starting dose is less than 10% of the MRSD determined from the dog NOAEL and less than 1% of the dog NOAEL.
The relevant animal study was the 28-day dog study where the NOAEL for IMB-1018972 was 200 mg/kg/day.

Data set [3] can be described thus: MAD part: safety and tolerability (TEAEs). The data set is classed as in vivo, human (healthy subjects).
Procedure: (§1) AEs were recorded from (first) admission until completion of the follow-up visit. Any clinically significant observations in results of clinical laboratory, 12-lead ECGs, vital signs, or physical examinations were recorded as AEs.
(§2) A treatment-emergent AE (TEAE) was defined as any event not present prior to (the first) administration of the study drug or any event already present that worsened in either severity or frequency following exposure to the study drug.
(§3) At several time points before and after drug administration, subjects were asked nonleading questions to determine the occurrence of AEs. Subjects were asked in general terms about any AEs at regular intervals during the study. In addition, all AEs reported spontaneously during the course of the study were recorded. Details included description of the event, date and time of onset, date and time of end, total duration, severity, relationship to study drug, intervention, seriousness, and outcome. All answers were interpreted by the Investigator and were recorded in the eCRF. All AEs were classified according to the Medical Dictionary for Regulatory Activities (MedDRA; Version 22.0) for AEs.
(§4) The severity of the AEs was rated as mild, moderate, or severe; the relationship between the AEs and the study drug was indicated as none, unlikely, possibly, likely, or definitely. Adverse events assessed as possibly, likely, or definitely were considered related to the study drug; AEs assessed as none or unlikely were considered not related to the study drug.
Data set [4] can be described thus: SAD part (and integrated FE arm): safety and tolerability (TEAEs).
Procedure: (§5) Each subject participated in only 1 group during the study.
as §1, §2, §3, §4
A short description of data set [5]: FIH study: plasma PK, single and multiple dose results combined. It counts as in vivo, human (healthy subjects). The following applies: all blood samples of subjects that received IMB-1018972.
Procedure: This was a double-blind, randomized, placebo-controlled study, consisting of a single ascending dose (SAD) part with integrated food effect (FE) arm, a multiple ascending dose (MAD) part, to assess the safety, tolerability, and PK of ascending single and multiple oral doses of IMB-1018972 (immediate-release [IR] formulation in the SAD and MAD parts).
(§6) The blood samples were taken via an indwelling intravenous catheter or by direct venipuncture. The exact times of blood sampling were recorded in the eCRF.
A short description of data set [6]: clinical. The data set is classed as in vivo, human (healthy subjects). The conditions noted are these: plasma; for Tmax: human, oral, 150 mg, read-out: median tmax.
Procedure: Subjects from Group A4 of the SAD part were assigned to the integrated FE arm. After administration of the drug to fasting subjects in the SAD part, the FE arm used the same subjects and experimental procedures.
Before dosing, subjects fasted overnight for at least 10 hours following a snack on the evening before. Then, subjects received an FDA-defined high-fat breakfast that had to be consumed within 20 minutes. The entire breakfast had to be consumed by the subjects. Dosing occurred at 30 minutes after the start of breakfast. Following dosing, subjects fasted for 4 hours until lunch. During fasting, fluids other than water were not allowed.
The procedure of data set [7]:
Subjects received multiple oral doses of an IR formulation of IMB-1018972 or placebo once every 12 hours (q12h) for 14 consecutive days.
The doses were selected based upon the safety, tolerability, and PK data from the SAD part: • Group B1 multiple oral doses of an IR formulation of 150 mg IMB-1018972 (n=9) or matching placebo (n=3) twice daily (q12h) for 14 days; on Day 14 only a single morning dose was administered • Group B2: multiple oral doses of an IR formulation of 50 mg IMB-1018972 (n=9) or matching placebo (n=3) q12h for 14 days; on Day 14 only a single morning dose was administered
Before each morning dose, subjects fasted overnight for at least 10 hours following a snack on the evening before. On Days 1 and 14, subjects received a standardized breakfast that had to be consumed within 20 minutes. Dosing occurred at 30 minutes after the start of breakfast. Following dosing, subjects fasted for 4 hours until lunch. During fasting, fluids other than water were not allowed. On Days 2 to 13, breakfast was not standardized and was given within maximally 1 hour before dosing and consumed before dosing. No fasting after dosing was applicable on these days.

A short description of data set [8]: clinical. How it is done: Subjects with R2 below 0.80 or %AUCextra>20% were not excluded from the dose-proportionality evaluation based on AUC0-inf. A point estimate and 95% CI were produced for the slope. […] Since there were only 2 dose levels in the MAD part, no dose-proportionality analysis was performed for the MAD part.
A short description of data set [9]: clinical. Also noted: species or system human (healthy subjects). The conditions noted are these: human, in vivo, po, 35 mg.
Procedure: as §5, §6
A short description of data set [10]: SAD part: PK in urine (urinary excretion, renal clearance). The conditions noted are these: for CL renal: human, urine, read-out: geometric mean renal clearance (CLR) (converted). It counts as in vivo, human (healthy subjects).
Procedure: Urine collection for PK was only conducted in the SAD part, but not in the second period of the FE group A4.
The subjects were instructed to empty their bladders completely before study drug administration and at the end of each collection interval. A blank urine sample was collected within 12 hours prior to study drug administration. The exact times of urine collection and the urine weight of the entire interval (before and after addition of any urine stabilizers, if used) were recorded in the eCRF.
Setting [11] is: 150 mg IMB-1018972, fasted (FE group).
[12] abbreviates: 150 mg IMB-1018972, fed (FDA high-fat breakfast).
The mark [13] stands for this setting: single oral dose 35 mg trimetazidine, all 4 TEAEs.

Each structure is given as a SMILES string. Where two headings read alike, the source gives them in different places.

As to `COc1ccc(CN2CCN(CCOC(=O)c3cccnc3)CC2)c(OC)c1OC` [IMB-1018972], the “clinical laboratory, vital signs, 12-lead ECG, telemetry, physical examination” value in data set [1] (single and multiple oral doses, IR formulation) is recorded as “no findings of clinical relevance”. Moreover, the deaths entry in data set [1] (whole study) is “no deaths reported”. Also, in data set [2] (both, dog, in vivo, 28 days), the “maximum recommended starting dose (MRSD)” value was 648 mg/day. Moreover, the TEAEs of flushing result in data set [3] (50 mg q12h fed) is “No TEAEs of flushing were reported”. For the same compound, in data set [3] (150 mg q12h fed), the “number of TEAEs of flushing (incidental and mild)” value is recorded as 7. In addition, in [3] (150 mg q12h fed (n=9)), the “subjects with TEAEs of flushing” value is 6. In [3] (MAD part (6 of 18)), the “subjects reporting drug-related TEAEs” value stood at 33.3%. The “subjects reporting TEAEs not related to the study drug” value in data set [3] (MAD part (11 of 18)) amounted to 61.1%. Besides, the “severity of TEAEs” value in data set [3] (MAD part, all TEAEs) is listed as “mild severity”. In data set [3] (all IMB-1018972 subjects of MAD part), the “total number of TEAEs” value amounted to 35. Moreover, the “effect of dosing under fed conditions on TEAEs” value in data set [4] (FE arm of SAD part, 150 mg) is “appeared to attenuate the number and incidence of TEAEs”. For the same compound, in data set [4] (SAD part), the “TEAEs of flushing of mild severity” value turned out to be 1, the “TEAEs of flushing of moderate severity” value worked out at 5, the “number of TEAEs of flushing (most common AEs)” value was found to be 6 and the “severe TEAEs” value was “No severe TEAEs were reported”. In addition, the “subjects reporting drug-related TEAEs of flushing” value in [4] (SAD part (6 subjects)) was 25%. The “subjects reporting drug-related TEAEs” value in data set [4] (SAD part (7 of 24)) amounted to 29.2%. Moreover, the “serious adverse event leading to withdrawal” value in data set [4] (Subject 131, 150 mg fasted, FE arm Group A4, moderate, unlikely related) is “influenza like illness”. For the same compound, the “total number of TEAEs” value in [4] (all IMB-1018972 subjects of SAD part) is recorded as 45. In addition, the “drug-related TEAEs” value in data set [4] (following 50 mg and 150 mg (fasted only group)) is “No drug-related TEAEs were reported”. In addition, the “subjects who reported flushing” value in [4] (single dose 150 mg fasted, FE arm (n=6)) stood at 2. Moreover, in data set [5], the “measurability of parent compound in plasma” value is given as “could be measured in only few plasma samples”.

For the compound `COc1ccc(CN2CCN(CCO)CC2)c(OC)c1OC` [IMB-1028814], the “AUC0-8×2” value is reported as 652,849 ng.h/mL in data set [2] (female dogs) and 417,733 ng.h/mL in data set [2] (male dogs). Further, the median tmax is 1 h in the data set “clinical [6]” (setting [11]); 2 h in “clinical [6]” (setting [12]); “around 1 hours” in “clinical [8]” (plasma, single-dose range 50 mg to 400 mg IMB-1018972 IR, fasted). For the same compound, the “state of concentrations at Day 14 dose (trough concentrations, visual inspection)” value in data set [7] (150 mg fed and 50 mg fed q12h) is recorded as “steady-state conditions”. Also, the “geometric mean Cmax higher on Day 1 in MAD part than after single dose in SAD part” value in data set [7] (150 mg fed in both parts) was found to be 97%. The “geometric mean t1/2” value in data set [7] (Day 14 after 50 mg q12h fed) stood at 2.79 h; in data set [7] (Day 14 after 150 mg q12h fed) it was 4.48 h. In addition, the “dose proportionality for Cmax, AUC0-t, AUC0-inf (95% CIs of slopes included 1)” value in the data set “clinical [8]” (IMB-1018972 single-dose range 50 to 400 mg, fasted) was “no evidence of a deviation from dose proportionality”.

As a reminder, the AUC(0-inf) is the area under the concentration-time curve extrapolated to infinity. In general, AUC(0-t) refers to the area under the concentration-time curve up to a stated or last time point. What is called Cmax is the maximum level reached in the sampled fluid or tissue. The term half-life denotes the time needed for the level to fall by half in the phase considered. A high value points to slow loss. The Tmax is the time from dosing to the highest level. On to `COc1ccc(CN2CCNCC2)c(OC)c1OC` [trimetazidine], for which the AUC(0-inf) in “clinical [9]” was 929 ng·h/mL. For the same compound, in the data set “clinical [9]”, the AUC(0-t) came out at 912 ng·h/mL. Further, the concentration in “clinical [9]” peaked (Cmax) at 68.6 ng/mL. Moreover, the half-life in the data set “clinical [9]” was 449 min; in the data set “clinical [8]” (human, plasma, oral) it was 406 to 480 min. Besides, the Tmax is 1.5 h in “clinical [6]” (setting [11]); 4 h in the data set “clinical [6]” (setting [12]); 1.5 to 2 h in “clinical [8]” (human, in vivo); 1 to 2 h in “clinical [8]” (human, in vivo, po, 50 mg). In data set [4] (single oral dose 35 mg trimetazidine), the “total number of TEAEs” value was determined as 4. Further, the “relationship of TEAEs to study drug” value in data set [4] (setting [13]) is listed as “not to be related to the study drug”. The “severity of TEAEs” value in data set [4] (setting [13]) is recorded as “mild severity”. The CL renal in data set [10] (oral, range over single doses 50 mg to 400 mg IMB-1018972) is 302 to 347 mL/min; in data set [10] (po, 35 mg), 340 mL/min. In addition, the “arithmetic mean percent of the dose excreted in urine” value in [10] (within 48 hours after single oral dose of 35 mg trimetazidine) came out at 54.47%. Also, the “time postdose at which detectable concentrations generally seen” value in “clinical [8]” (human, in vivo) fell in the range of 15 to 30 min.
